Results as given in ChEMBL document CHEMBL1201862, “PubChem BioAssay data set” (2004).
“And” between values parts separate entries of the source, which are not always exact repeats. Identical values can stand only once.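 Values below derive from 48-hour exposures of cells grown in 96-well plates, with endpoints linearly interpolated between the two concentrations bracketing the appropriate inhibition level. Here, GI50 denotes the concentration required for 50% inhibition of growth.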 The source made the active and inactive calls. Rule as the data show it: active = GI50 up to about 1.1 µM and inactive = higher.

Columns and labels:
Experiment in all cases: growth of human tumour cells (NCI), 48 h
SF-295 = test system: SF-295
HOP-92 = test system: HOP-92
SN12C = test system: SN12C
HOP-62 = test system: HOP-62
COLO 205 = test system: COLO 205
EKVX = test system: EKVX
KM12 = test system: KM12
HCT-116 = test system: HCT-116
SK-MEL-5 = test system: SK-MEL-5
SNB-19 = test system: SNB-19
UACC-257 = test system: UACC-257
HL-60 = test system: HL-60
SF-539 = test system: SF-539
SK-OV-3 = test system: SK-OV-3
A549 = test system: A549
OVCAR-8 = test system: OVCAR-8
HT-29 = test system: HT-29
SK-MEL-28 = test system: SK-MEL-28
K562 = test system: K562
SF-268 = test system: SF-268

Measured: GI50

CC1=NN(C(=O)c2ccc(C)cc2)C(=O)C1/N=N/c1ccccc1C(=O)O (centres undefined)
inactive: SF-295 > 92.3 µM | HOP-92 > 79.8 µM | SN12C > 100 µM | HOP-62 > 100 µM | COLO 205 > 100 µM | EKVX > 100 µM | KM12 > 100 µM | HCT-116 > 100 µM | SK-MEL-5 > 100 µM | SNB-19 > 100 µM | UACC-257 > 100 µM | HL-60 > 62.7 µM | SF-539 > 100 µM | SK-OV-3 > 100 µM | A549 > 100 µM | OVCAR-8 > 74.5 µM | HT-29 > 32.1 µM | SK-MEL-28 > 100 µM | K562 66.4 µM | SF-268 > 100 µM

COc1cc2cc[n+]3c(C)c4cc(OC)c(OC)cc4c([O-])c3c2cc1OC
inactive: SF-295 > 100 µM | HOP-92 > 100 µM | SN12C 32.7 µM | HOP-62 > 100 µM | COLO 205 12.4 µM | EKVX > 100 µM | KM12 70.1 µM | HCT-116 89.7 µM | SK-MEL-5 36.8 µM | SNB-19 > 100 µM | UACC-257 30.8 µM | HL-60 16.9 µM | SF-539 36.9 µM | SK-OV-3 > 100 µM | A549 > 100 µM | OVCAR-8 > 100 µM | HT-29 41.2 µM | SK-MEL-28 64.3 µM | K562 64.3 µM | SF-268 36.3 µM

COc1ccc(/C=N/n2cnc3c(c2=O)SC(=C(C#N)C#N)N3c2ccccc2)cc1
inactive: SF-295 74.5 µM | HOP-92 38.8 µM | HOP-62 86.5 µM | COLO 205 > 100 µM | KM12 > 100 µM | HCT-116 > 100 µM | SK-MEL-5 > 100 µM | SNB-19 > 100 µM | UACC-257 > 100 µM | HL-60 > 100 µM | SF-539 36.2 µM | SK-OV-3 > 100 µM | A549 > 100 µM | OVCAR-8 > 100 µM | HT-29 > 100 µM | SK-MEL-28 90.8 µM | K562 > 100 µM | SF-268 41.1 µM

CCOC(=O)C1=C(C)N(C2OC(COC(C)=O)C(OC(C)=O)C(OC(C)=O)C2OC(C)=O)C(=O)NC1c1ccccc1 (centres undefined)
inactive: SF-295 > 100 µM | SN12C > 100 µM | HOP-62 > 100 µM | COLO 205 > 100 µM | EKVX > 100 µM | KM12 > 100 µM | HCT-116 > 100 µM | SK-MEL-5 > 100 µM | SNB-19 > 100 µM | UACC-257 > 100 µM | HL-60 > 100 µM | SF-539 > 100 µM | SK-OV-3 > 100 µM | A549 > 100 µM | OVCAR-8 > 100 µM | HT-29 > 100 µM | SK-MEL-28 > 100 µM | K562 > 100 µM | SF-268 > 100 µM

COc1cc(C(O)(CC#N)c2cc3c(cc2Br)OCO3)cc(OC)c1OC (centres undefined)
inactive: SF-295 16.3 µM | HOP-92 > 100 µM | SN12C > 100 µM | HOP-62 1.63 µM | COLO 205 37.6 µM | EKVX 54.1 µM | KM12 21 µM | HCT-116 40.6 µM | SNB-19 27.1 µM | UACC-257 27.9 µM | SF-539 8.05 µM | SK-OV-3 24.4 µM | A549 22.9 µM | OVCAR-8 44.9 µM | HT-29 25.4 µM | SK-MEL-28 23.4 µM | K562 48 µM | SF-268 28.2 µM

CSc1cc(=O)n2c3ccccc3c3ccnc1c32
inactive: SF-295 > 65.2 µM | HOP-92 65.3 µM | SN12C > 100 µM | HOP-62 35.5 µM | COLO 205 > 100 µM | EKVX 24.4 µM | KM12 > 82.2 µM | HCT-116 > 100 µM | SK-MEL-5 43.4 µM | SNB-19 > 64.3 µM | UACC-257 > 54.5 µM | HL-60 > 100 µM | SF-539 > 50 µM | SK-OV-3 25.6 µM | A549 > 100 µM | OVCAR-8 > 67.9 µM | HT-29 > 100 µM | SK-MEL-28 > 100 µM | K562 > 100 µM | SF-268 > 49.9 µM

CCOC(=O)c1ccc(N2C(=O)/C(=C/c3ccc(N(CCC#N)CCC#N)cc3)N=C2c2cc([N+](=O)[O-])ccc2Cl)cc1
inactive: SF-295 > 100 µM | HOP-92 > 100 µM | SN12C > 100 µM | HOP-62 > 100 µM | COLO 205 > 100 µM | EKVX > 100 µM | KM12 > 100 µM | HCT-116 > 100 µM | SK-MEL-5 > 100 µM | SNB-19 > 100 µM | SF-539 > 100 µM | SK-OV-3 > 100 µM | A549 > 100 µM | OVCAR-8 > 100 µM | SK-MEL-28 > 100 µM | K562 > 100 µM | SF-268 > 100 µM

CC(=O)c1ccc(Oc2ccc(/C(C)=N\N=C(N)N)cc2)cc1
inactive: SF-295 2.38 µM | HOP-92 2.96 µM | SN12C 3.17 µM | HOP-62 2.26 µM | COLO 205 1.67 µM | EKVX 4.51 µM | HCT-116 3.24 µM | SK-MEL-5 2.08 µM | SNB-19 10.7 µM | UACC-257 5.68 µM | SF-539 1.72 µM | SK-OV-3 2.83 µM | A549 4.12 µM | OVCAR-8 3.12 µM | HT-29 1.67 µM | SK-MEL-28 4.68 µM | SF-268 3.59 µM

CC(C(=O)O)c1cnn(-c2ccccc2)c1-n1cccc1 (centres undefined)
inactive: SF-295 > 100 µM | HOP-92 > 100 µM | SN12C > 100 µM | HOP-62 > 100 µM | COLO 205 > 100 µM | EKVX > 100 µM | KM12 > 100 µM | HCT-116 > 100 µM | SK-MEL-5 > 100 µM | SNB-19 > 100 µM | UACC-257 > 100 µM | HL-60 > 100 µM | SF-539 > 100 µM | SK-OV-3 > 100 µM | A549 > 100 µM | OVCAR-8 > 100 µM | HT-29 > 100 µM | SK-MEL-28 > 100 µM | K562 > 100 µM | SF-268 > 100 µM

OCC(O)COc1ccc(Br)cc1 (centres undefined)
inactive: SF-295 > 100 µM | HOP-92 > 100 µM | SN12C 60.3 µM | HOP-62 > 100 µM | COLO 205 > 100 µM | EKVX > 100 µM | KM12 > 100 µM | HCT-116 > 100 µM | SK-MEL-5 > 100 µM | SNB-19 > 100 µM | UACC-257 > 100 µM | HL-60 > 100 µM | SF-539 > 100 µM | SK-OV-3 > 100 µM | A549 50.7 µM | OVCAR-8 > 100 µM | HT-29 > 100 µM | SK-MEL-28 > 100 µM | K562 > 100 µM | SF-268 > 100 µM

O=C1C(Cl)N(c2ccc(Cl)cc2)C1c1c[nH]c2ccccc12 (centres undefined)
inactive: SF-295 16.4 µM | HOP-92 22.5 µM | SN12C 17.7 µM | HOP-62 17.7 µM | COLO 205 22.5 µM | EKVX 16.9 µM | KM12 27 µM | HCT-116 13.8 µM | SK-MEL-5 15.5 µM | SNB-19 18.2 µM | UACC-257 16.8 µM | HL-60 15.8 µM | SF-539 18.2 µM | SK-OV-3 > 10 µM | A549 33.7 µM | OVCAR-8 31.3 µM | HT-29 17.1 µM | SK-MEL-28 24.8 µM | K562 16.7 µM | SF-268 26.2 µM

C/C(=N/NC(=O)c1ccncc1)C(F)(F)F
inactive: SF-295 > 100 µM | HOP-92 > 100 µM | SN12C > 100 µM | HOP-62 > 100 µM | COLO 205 > 100 µM | KM12 > 100 µM | HCT-116 > 100 µM | SK-MEL-5 > 100 µM | SNB-19 > 100 µM | HL-60 > 100 µM | SK-OV-3 > 100 µM | OVCAR-8 > 100 µM | HT-29 > 100 µM | SK-MEL-28 > 100 µM | K562 > 100 µM

C[C@@H]1C[C@]2(C[C@@H](C)[C@H]3C(C[C@@]4(C)CCC[C@@H]5C6=C[C@H](CCC34C)OC6=CC(=O)OC5(C)C)O2)OC1=O (some centres undefined)
inactive: SF-295 > 51.5 µM | HOP-92 43.1 µM | SN12C > 51.5 µM | HOP-62 > 51.5 µM | COLO 205 > 51.5 µM | EKVX > 51.5 µM | KM12 > 51.5 µM | SK-MEL-5 > 51.5 µM | SNB-19 > 51.5 µM | UACC-257 > 51.5 µM | HL-60 > 51.5 µM | SF-539 > 51.5 µM | SK-OV-3 > 51.5 µM | A549 > 51.5 µM | OVCAR-8 > 51.5 µM | HT-29 > 51.5 µM | K562 > 51.5 µM

O=C1C(CO)=C[C@H](O)[C@H]2O[C@@H]12
inactive: SF-295 84.9 µM | HOP-92 283 µM | SN12C 128 µM | HOP-62 497 µM | COLO 205 111 µM | EKVX 121 µM | KM12 83.9 µM | HCT-116 104 µM | SK-MEL-5 202 µM | SNB-19 419 µM | UACC-257 158 µM | HL-60 78.3 µM | SF-539 242 µM | SK-OV-3 330 µM | A549 318 µM | OVCAR-8 137 µM | HT-29 260 µM | SK-MEL-28 136 µM | K562 163 µM | SF-268 125 µM

CC(Oc1ccc(Oc2cnc3ccc(Cl)cc3n2)cc1)C(=O)O (centres undefined)
inactive: SF-295 98.9 µM | HOP-92 > 100 µM | HOP-62 > 99.3 µM | COLO 205 > 70 µM | EKVX > 100 µM | HCT-116 88.7 µM | SK-MEL-5 > 62.8 µM and 72.8 µM | SNB-19 > 100 µM | HL-60 > 100 µM | SF-539 > 100 µM | A549 68.5 µM | OVCAR-8 > 82.4 µM | SF-268 89.7 µM
